Results published in US20220135538A1, “P300/CBP HAT INHIBITORS AND METHODS FOR THEIR USE” (Constellation Pharmaceuticals, Inc., priority 2019, published 2022).

biological target: T1, p300 HAT domain (residues 1287-1666) (Homo sapiens, UniProt Q09472); assay: P300 HAT SPA assay (scintillation proximity, acetylation of biotinylated H3(1-21) peptide); format: biochemical; details: 6 nM p300-HAT domain; average of at least 2 replicate titrations
T1 construct: The p300 HAT domain (residues 1287-1666) was expressed; His tag (N); made in house; host or cells: Escherichia coli
T1 sequence (Q09472 1287-1666): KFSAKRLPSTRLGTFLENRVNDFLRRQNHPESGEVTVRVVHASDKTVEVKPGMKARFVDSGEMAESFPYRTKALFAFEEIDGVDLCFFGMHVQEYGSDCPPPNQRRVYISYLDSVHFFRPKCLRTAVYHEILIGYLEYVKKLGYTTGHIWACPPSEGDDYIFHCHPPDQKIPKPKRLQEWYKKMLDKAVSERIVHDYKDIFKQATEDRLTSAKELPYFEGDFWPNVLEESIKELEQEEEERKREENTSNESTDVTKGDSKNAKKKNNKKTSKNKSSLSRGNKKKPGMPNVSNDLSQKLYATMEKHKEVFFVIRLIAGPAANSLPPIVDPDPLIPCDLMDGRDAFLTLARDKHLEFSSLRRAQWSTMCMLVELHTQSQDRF
Procedure: The activity of the compounds described herein as p300/CBP HAT inhibitors may be readily determined using a scintillation proximity assay (SPA) methodology (Udenfriend, S.; Gerber, L.; Nelson, N. Scintillation Proximity Assay: A Sensitive and Continuous Isotopic Method for Monitoring Ligand/Receptor and Antigen/Antibody Interactions. Anal. Biochem. 1987, 161, 494-500).
In a typical experiment the p300 HAT inhibitory activity of the compounds described herein was determined in accordance with the following experimental method.
The p300 HAT domain (residues 1287-1666) was expressed and purified with an N-terminal His tag from Escherichia coli cells. The expressed protein was purified by Ni2+affinity, followed by anion exchange chromatography. Appropriate fractions were pooled and buffer exchanged into 20 mM Hepes pH 7.5, 150 mM NaCl, and 1 mM TCEP.
Compounds of interest solubilized in DMSO were stamped in a Greiner black 384-well plate in a 10-point duplicate dose response using an Echo 550 (Labcyte). p300-HAT domain purified in-house (aa 1287-1666) was diluted to 6 nM in reaction buffer (50 mM Tris pH 8.0, 100 mM NaCl, 1 mM DTT, 0.069 mM Brij-35, 0.1 mM EDTA, 0.1 mg/mL BSA), combined with 4.14 μM AcCoA (Sigma-Aldrich) and 0.46 μM ^3H-AcCoA (PerkinElmer), and 12.5 μL added to each well and incubated for 30 min at RT. Reactions were initiated with 12.5 μL 2 μM biotinylated H3(1-21) peptide (New England Peptide) and run for 1 hr at RT, then quenched with 20 μL stop solution (200 mM Tris pH 8.0, 200 mM EDTA, 2M NaCl, 160 μM anacardic acid). 35 μL of the reaction volume was transferred to a 384-well streptavidin FlashPlate (PerkinElmer) using a Bravo liquid handler (Velocity 11) and incubated for 1.5 hr at RT. Plates were aspirated, washed with 95 μL wash buffer (15 mM Tris pH 8.5, 0.069 μM Brij-35), aspirated, sealed, and scintillation counts read on a Topcount (PerkinElmer). Data were analyzed in Genedata to determine inhibitor IC50 values.

| Compound | IC50 |
| --- | --- |
| Cc1cnc(Oc2ccc(NC(=O)C(NCCc3ccc(C#N)cc3)c3ccccc3)nc2)nc1 (single isomer, unassigned) [22 Isomer 1] | > 2000 nM |
| N#Cc1ccc(CCNC(C(=O)Nc2ccc(O[C@@H]3CCOC3)cn2)c2ccccc2)cc1 (single isomer, unassigned) [4 Isomer 2] | > 2000 nM |
| CN1CCC(Oc2ccc(NC(=O)C(NCCc3ccc(C#N)cc3)c3ccccc3)nc2)C1=O (single isomer, unassigned) [12 Isomer 4] | > 2000 nM |
| CC(=O)N1CC[C@@H](Oc2ccc(NC(=O)C(NCCc3ccc(C#N)cc3)c3ccccc3)nc2)C1 (single isomer, unassigned) [14 Isomer 1] | 36.2 nM |
| CN1CC(Oc2ccc(NC(=O)C(NCCc3ccc(Cl)cc3)c3ccccc3)nc2)CCC1=O (single isomer, unassigned) [10 Isomer 2] | > 2000 nM |
| CN1CCC(Oc2ccc(NC(=O)C(NCCc3ccc(C#N)cc3)c3ccccc3)nc2)C1=O (single isomer, unassigned) [12 Isomer 1] | 65 nM |
| CC(CNC(C(=O)Nc1ccc(Oc2cnn(C)c2)cn1)c1ccccc1)c1ccc(C#N)cc1 (single isomer, unassigned) [17 Isomer 3] | > 2000 nM |
| N#Cc1ccc(CCNC(C(=O)Nc2ccc(O[C@@H]3CCOC3)cn2)c2ccccc2)cc1 (single isomer, unassigned) [4 Isomer 1] | 91.4 nM |
| O=C(Nc1ccc(OCCn2cccn2)cn1)C(NCCc1ccc(Cl)cc1)c1ccccc1 (single isomer, unassigned) [7 Isomer 1] | > 2000 nM |
| CC(Oc1ccc(NC(=O)C(NCCc2ccc(C#N)cc2)c2ccccc2)nc1)c1cnn(C)c1 (single isomer, unassigned) [18 Isomer 4] | > 2000 nM |
| CN1CCC(Oc2ccc(NC(=O)C(NCCc3ccc(C#N)cc3)c3ccccc3)nc2)C1=O (single isomer, unassigned) [12 Isomer 3] | > 2000 nM |
| Cc1cnc(Oc2ccc(NC(=O)C(NCCc3ccc(C#N)cc3)c3ccccc3)nc2)nc1 (single isomer, unassigned) [22 Isomer 2] | 1390 nM |
| CC(CNC(C(=O)Nc1ccc(OC2CN(C(=O)C3CC3)C2)cn1)c1ccccc1)c1ccc(C#N)cc1 (single isomer, unassigned) [21 Isomer 2] | > 2000 nM |
| CN1CC(Oc2ccc(NC(=O)C(NCCc3ccc(Cl)cc3)c3ccccc3)nc2)CN(C)C1=O (single isomer, unassigned) [3 Isomer 1] | > 2000 nM |
| CC(CNC(C(=O)Nc1ccc(OC2CN(C(=O)OC(C)(C)C)C2)cn1)c1ccccc1)c1ccc(C#N)cc1 (single isomer, unassigned) [25 Isomer 2] | 115 nM |
| N#Cc1ccc(CCNC(C(=O)Nc2ccc(OCCN3CCOC3=O)cn2)c2ccccc2)cc1 (single isomer, unassigned) [19 Isomer 2] | > 2000 nM |
| Cn1cc(COc2ccc(NC(=O)C(NCCc3ccc(Cl)cc3)c3ccccc3)nc2)cn1 (single isomer, unassigned) [8 Isomer 1] | 1360 nM |
| CC(=O)N1CC[C@H](Oc2ccc(NC(=O)C(NCCc3ccc(C#N)cc3)c3ccccc3)nc2)C1 (single isomer, unassigned) [13 Isomer 1] | > 2000 nM |
| CC(CNC(C(=O)Nc1ccc(Oc2cnn(C)c2)cn1)c1ccccc1)c1ccc(C#N)cc1 (single isomer, unassigned) [17 Isomer 4] | > 2000 nM |
| CN1CC(Oc2ccc(NC(=O)C(NCCc3ccc(Cl)cc3)c3ccccc3)nc2)CCC1=O (single isomer, unassigned) [10 Isomer 4] | > 2000 nM |
| CC(CNC(C(=O)Nc1ccc(OC2CN(C(=O)OC(C)(C)C)C2)cn1)c1ccccc1)c1ccc(C#N)cc1 (single isomer, unassigned) [25 Isomer 1] | > 1000 nM |
| CN1CC(Oc2ccc(NC(=O)C(NCCc3ccc(Cl)cc3)c3ccccc3)nc2)CN(C)C1=O (single isomer, unassigned) [3 Isomer 2] | 117 nM |
| CC(=O)N1CCC[C@@H](Oc2ccc(NC(=O)C(NCCc3ccc(C#N)cc3)c3ccccc3)nc2)C1 (single isomer, unassigned) [16 Isomer 1] | 164 nM |
| CC(=O)N1CC[C@H](Oc2ccc(NC(=O)C(NCCc3ccc(C#N)cc3)c3ccccc3)nc2)C1 (single isomer, unassigned) [13 Isomer 2] | 59.9 nM |
| O=C(Nc1ccc(OCCn2cccn2)cn1)C(NCCc1ccc(Cl)cc1)c1ccccc1 (single isomer, unassigned) [7 Isomer 2] | 98.5 nM |
| CC(Oc1ccc(NC(=O)C(NCCc2ccc(C#N)cc2)c2ccccc2)nc1)c1cnn(C)c1 (single isomer, unassigned) [18 Isomer 1] | 311 nM |
| CC(CNC(C(=O)Nc1ccc(OC2CCN(C(=O)C3CC3)CC2)cn1)c1ccccc1)c1ccc(C#N)cc1 (single isomer, unassigned) [20 Isomer 2] | 26.7 nM |

Other lines, results leading:

| IC50 | Compound |
| --- | --- |
| 272 nM | CC(=O)N1CCC[C@H](Oc2ccc(NC(=O)C(NCCc3ccc(C#N)cc3)c3ccccc3)nc2)C1 (single isomer, unassigned) [15 Isomer 1] |
| 94.2 nM | CN1CC(Oc2ccc(NC(=O)C(NCCc3ccc(Cl)cc3)c3ccccc3)nc2)CCC1=O (single isomer, unassigned) [10 Isomer 1] |
| > 2000 nM | CC(=O)N1CCC[C@H](Oc2ccc(NC(=O)C(NCCc3ccc(C#N)cc3)c3ccccc3)nc2)C1 (single isomer, unassigned) [15 Isomer 2] |
| 1140 nM | N#Cc1ccc(CCNC(C(=O)Nc2ccc(OC3COC3)cn2)c2ccccc2)cc1 (single isomer, unassigned) [6 Isomer 2] |
| > 2000 nM | CC(CNC(C(=O)Nc1ccc(Oc2cnn(C)c2)cn1)c1ccccc1)c1ccc(C#N)cc1 (single isomer, unassigned) [17 Isomer 2] |
| 39.9 nM | N#Cc1ccc(CCNC(C(=O)Nc2ccc(OC3COC3)cn2)c2ccccc2)cc1 (single isomer, unassigned) [6 Isomer 1] |
| 965 nM | CC(=O)N1CC(Oc2ccc(NC(=O)C(NCC(C)c3ccc(C#N)cc3)c3cccc(F)c3)nc2)C1 (single isomer, unassigned) [23 Isomer 2] |
| > 2000 nM | CC(CNC(C(=O)Nc1ccc(OC2CCN(C(=O)C3CC3)CC2)cn1)c1ccccc1)c1ccc(C#N)cc1 (single isomer, unassigned) [20 Isomer 1] |
| > 2000 nM | CC(=O)N1CC(Oc2ccc(NC(=O)C(NCC(C)c3ccc(C#N)cc3)c3cnn(C)c3)nc2)C1 (single isomer, unassigned) [24 Isomer 4] |
| 56.6 nM | N#Cc1ccc(CCNC(C(=O)Nc2ccc(OCCN3CCOC3=O)cn2)c2ccccc2)cc1 (single isomer, unassigned) [19 Isomer 1] |
| 578 nM | CC(=O)N1CC(Oc2ccc(NC(=O)C(NCC(C)c3ccc(C#N)cc3)c3cnn(C)c3)nc2)C1 (single isomer, unassigned) [24 Isomer 2] |
| > 2000 nM | CC(Oc1ccc(NC(=O)C(NCCc2ccc(C#N)cc2)c2ccccc2)nc1)c1cnn(C)c1 (single isomer, unassigned) [18 Isomer 3] |
| 26.6 nM | CN1CCC(Oc2ccc(NC(=O)C(NCCc3ccc(Cl)cc3)c3ccccc3)nc2)CC1 (single isomer, unassigned) [11 Isomer 1] |
| 209 nM | CC(Oc1ccc(NC(=O)C(NCCc2ccc(C#N)cc2)c2ccccc2)nc1)c1cnn(C)c1 (single isomer, unassigned) [18 Isomer 2] |
| 63 nM | CN1CCC(Oc2ccc(NC(=O)C(NCCc3ccc(C#N)cc3)c3ccccc3)nc2)C1=O (single isomer, unassigned) [12 Isomer 2] |
